# Test results: ChEMBL document CHEMBL3885861, “Open TG-GATES”
# Species: Rattus norvegicus
# Assay: Open TG-GATES - Regimen: Daily Repeat
# Assay type: toxicity, organism-based, Sprague-Dawley
# Set-up: regimen Daily Repeat, gender Male, age 6 weeks
# Settings: in vivo, po, 10 mg/kg, route gavage, dose level Low; for APTT / Bas / Eos / Fbg / Hb / Ht / Lym / MCH / MCHC / MCV / Mono / Neu / PT / Plat / RBC / Ret / WBC: tissue Blood; for KIDNEY_L / KIDNEY_R / KIDNEY_TOTAL: tissue Kidney; for LIVER: tissue Liver; for A/G / ALP / ALT / AST / BUN / CRE / Ca / Cl / DBIL / GLC / IP / K / LDH / Na / PL / RALB / TBIL / TC / TG / TP / gamma-GTP: tissue Plasma
smiles,measurement,setting,value
O=C1CN(/N=C/c2ccc([N+](=O)[O-])o2)C(=O)N1 [NITROFURANTOIN],TERMINAL_BW,"72 h, time 3 day",245.3 g
same,APTT,"72 h, time 3 day",18 s
same,Bas,"72 h, time 3 day",0%
same,Eos,"72 h, time 3 day",1%
same,Fbg,"72 h, time 3 day",213.8 mg/dL
same,Hb,"72 h, time 3 day",13.2 g/dL
same,Ht,"72 h, time 3 day",37.5%
same,Lym,"72 h, time 3 day",79.8%
same,MCH,"72 h, time 3 day",22.4 pg
same,MCHC,"72 h, time 3 day",35.3%
same,MCV,"72 h, time 3 day",63.3 fL
same,Mono,"72 h, time 3 day",2.6%
same,Neu,"72 h, time 3 day",15.2%
same,PT,"72 h, time 3 day",12.5 s
same,Plat,"72 h, time 3 day",122.9 x10_4/uL
same,RBC,"72 h, time 3 day",592.2 x10_4/ul
same,Ret,"72 h, time 3 day",6.6%
same,WBC,"72 h, time 3 day",108.7 x10_2/uL
same,KIDNEY_L,"72 h, time 3 day",1.1 g
same,KIDNEY_R,"72 h, time 3 day",1 g
same,KIDNEY_TOTAL,"72 h, time 3 day",2.1 g
same,LIVER,"72 h, time 3 day",11.5 g
same,A/G,"72 h, time 3 day",1.7
same,ALP,"72 h, time 3 day",964.4 IU/L
same,ALT,"72 h, time 3 day",33.2 IU/L
same,AST,"72 h, time 3 day",68 IU/L
same,BUN,"72 h, time 3 day",13.8 mg/dL
same,CRE,"72 h, time 3 day",0.4 mg/dL
same,Ca,"72 h, time 3 day",10.6 mg/dL
same,Cl,"72 h, time 3 day",102.4 meq/L
same,DBIL,"72 h, time 3 day",0.096 mg/dL
same,GLC,"72 h, time 3 day",212.6 mg/dL
same,IP,"72 h, time 3 day",7.2 mg/dL
same,K,"72 h, time 3 day",3.9 meq/L
same,LDH,"72 h, time 3 day",200.2 IU/L
same,Na,"72 h, time 3 day",140 meq/L
same,PL,"72 h, time 3 day",134.4 mg/dL
same,RALB,"72 h, time 3 day",3.4 g/dL
same,TBIL,"72 h, time 3 day",0.1 mg/dL
same,TC,"72 h, time 3 day",65.6 mg/dL
same,TG,"72 h, time 3 day",99.8 mg/dL
same,TP,"72 h, time 3 day",5.5 g/dL
same,gamma-GTP,"72 h, time 3 day",1 IU/L
same,TERMINAL_BW,"[…], time 7 day",276.7 g
same,TERMINAL_BW,"[…], time 14 day",338.3 g
same,TERMINAL_BW,"[…], time 28 day",422 g
same,APTT,"[…], time 7 day",20.1 s
same,Bas,"[…], time 7 day",0%
same,Eos,"[…], time 7 day",1%
same,Fbg,"[…], time 7 day",228.8 mg/dL
same,Hb,"[…], time 7 day",13.9 g/dL
same,Ht,"[…], time 7 day",39.5%
same,Lym,"[…], time 7 day",79.2%
same,MCH,"[…], time 7 day",21.7 pg
same,MCHC,"[…], time 7 day",35.2%
same,MCV,"[…], time 7 day",61.9 fL
same,Mono,"[…], time 7 day",3%
same,Neu,"[…], time 7 day",16.4%
same,PT,"[…], time 7 day",12.6 s
same,Plat,"[…], time 7 day",124.7 x10_4/uL
same,RBC,"[…], time 7 day",639.4 x10_4/ul
same,Ret,"[…], time 7 day",6%
same,WBC,"[…], time 7 day",123.1 x10_2/uL
same,APTT,"[…], time 14 day",19.8 s
same,Bas,"[…], time 14 day",0%
same,Eos,"[…], time 14 day",1%
same,Fbg,"[…], time 14 day",223 mg/dL
same,Hb,"[…], time 14 day",14.3 g/dL
same,Ht,"[…], time 14 day",41.2%
same,Lym,"[…], time 14 day",80.6%
same,MCH,"[…], time 14 day",21 pg
same,MCHC,"[…], time 14 day",34.8%
same,MCV,"[…], time 14 day",60.3 fL
same,Mono,"[…], time 14 day",2.2%
same,Neu,"[…], time 14 day",15%
same,PT,"[…], time 14 day",12.2 s
same,Plat,"[…], time 14 day",114.6 x10_4/uL
same,RBC,"[…], time 14 day",683 x10_4/ul
same,Ret,"[…], time 14 day",4.3%
same,WBC,"[…], time 14 day",119.2 x10_2/uL
same,APTT,"[…], time 28 day",19.9 s
same,Bas,"[…], time 28 day",0%
same,Eos,"[…], time 28 day",1%
same,Fbg,"[…], time 28 day",220.4 mg/dL
same,Hb,"[…], time 28 day",15 g/dL
same,Ht,"[…], time 28 day",43.1%
same,Lym,"[…], time 28 day",83.8%
same,MCH,"[…], time 28 day",19.8 pg
same,MCHC,"[…], time 28 day",34.8%
same,MCV,"[…], time 28 day",56.8 fL
same,Mono,"[…], time 28 day",2.2%
same,Neu,"[…], time 28 day",12.2%
same,PT,"[…], time 28 day",12.7 s
same,Plat,"[…], time 28 day",99.8 x10_4/uL
same,RBC,"[…], time 28 day",759 x10_4/ul
same,Ret,"[…], time 28 day",2.6%
same,WBC,"[…], time 28 day",140.7 x10_2/uL
same,KIDNEY_L,"[…], time 7 day",1.1 g
same,KIDNEY_R,"[…], time 7 day",1.1 g
same,KIDNEY_TOTAL,"[…], time 7 day",2.3 g
same,KIDNEY_L,"[…], time 14 day",1.3 g
same,KIDNEY_R,"[…], time 14 day",1.3 g
same,KIDNEY_TOTAL,"[…], time 14 day",2.5 g
same,KIDNEY_L,"[…], time 28 day",1.5 g
same,KIDNEY_R,"[…], time 28 day",1.5 g
same,KIDNEY_TOTAL,"[…], time 28 day",2.9 g
same,LIVER,"[…], time 7 day",13.3 g
same,LIVER,"[…], time 14 day",15.1 g
same,LIVER,"[…], time 28 day",17.2 g
same,A/G,"[…], time 7 day",1.6
same,ALP,"[…], time 7 day",916.8 IU/L
same,ALT,"[…], time 7 day",33.4 IU/L
same,AST,"[…], time 7 day",62.4 IU/L
same,BUN,"[…], time 7 day",15.8 mg/dL
same,CRE,"[…], time 7 day",0.4 mg/dL
same,Ca,"[…], time 7 day",11 mg/dL
same,Cl,"[…], time 7 day",100.6 meq/L
same,DBIL,"[…], time 7 day",0.1 mg/dL
same,GLC,"[…], time 7 day",205 mg/dL
same,IP,"[…], time 7 day",7.6 mg/dL
same,K,"[…], time 7 day",4.3 meq/L
same,LDH,"[…], time 7 day",201.2 IU/L
same,Na,"[…], time 7 day",140 meq/L
same,PL,"[…], time 7 day",156.8 mg/dL
same,RALB,"[…], time 7 day",3.5 g/dL
same,TBIL,"[…], time 7 day",0.2 mg/dL
same,TC,"[…], time 7 day",74.4 mg/dL
same,TG,"[…], time 7 day",142.4 mg/dL
same,TP,"[…], time 7 day",5.7 g/dL
same,gamma-GTP,"[…], time 7 day",1 IU/L
same,A/G,"[…], time 14 day",1.5
same,ALP,"[…], time 14 day",781 IU/L
same,ALT,"[…], time 14 day",32.6 IU/L
same,AST,"[…], time 14 day",60.4 IU/L
same,BUN,"[…], time 14 day",17.6 mg/dL
same,CRE,"[…], time 14 day",0.5 mg/dL
same,Ca,"[…], time 14 day",10.7 mg/dL
same,Cl,"[…], time 14 day",102.6 meq/L
same,DBIL,"[…], time 14 day",0.1 mg/dL
same,GLC,"[…], time 14 day",208 mg/dL
same,IP,"[…], time 14 day",6.5 mg/dL
same,K,"[…], time 14 day",3.7 meq/L
same,LDH,"[…], time 14 day",209.8 IU/L
same,Na,"[…], time 14 day",140.4 meq/L
same,PL,"[…], time 14 day",160.6 mg/dL
same,RALB,"[…], time 14 day",3.6 g/dL
same,TBIL,"[…], time 14 day",0.2 mg/dL
same,TC,"[…], time 14 day",75 mg/dL
same,TG,"[…], time 14 day",149.6 mg/dL
same,TP,"[…], time 14 day",6.1 g/dL
same,gamma-GTP,"[…], time 14 day",1 IU/L
same,A/G,"[…], time 28 day",1.3
same,ALP,"[…], time 28 day",736.4 IU/L
same,ALT,"[…], time 28 day",32.6 IU/L
same,AST,"[…], time 28 day",59.2 IU/L
same,BUN,"[…], time 28 day",16.6 mg/dL
same,CRE,"[…], time 28 day",0.5 mg/dL
same,Ca,"[…], time 28 day",10.4 mg/dL
same,Cl,"[…], time 28 day",102.4 meq/L
same,DBIL,"[…], time 28 day",0.098 mg/dL
same,GLC,"[…], time 28 day",224 mg/dL
same,IP,"[…], time 28 day",6.3 mg/dL
same,K,"[…], time 28 day",3.5 meq/L
same,LDH,"[…], time 28 day",137 IU/L
same,Na,"[…], time 28 day",139.6 meq/L
same,PL,"[…], time 28 day",140.8 mg/dL
same,RALB,"[…], time 28 day",3.4 g/dL
same,TBIL,"[…], time 28 day",0.2 mg/dL
same,TC,"[…], time 28 day",66.2 mg/dL
same,TG,"[…], time 28 day",104.6 mg/dL
same,TP,"[…], time 28 day",5.9 g/dL
same,gamma-GTP,"[…], time 28 day",1 IU/L
